Assay results taken from patent US20110282056A1, “PROTEIN KINASE INHIBITORS AND USE THEREOF” (priority 2008, published 2011).

Assays:
Type in all cases: biochemical
VEGFR3 = biological target: T1, VEGFR3 (Homo sapiens, UniProt P35916); assay: VEGFR3 enzyme activity assay (Caliper LC3000 mobility shift); conditions: 400 uM ATP (Km), 0.4 nM VEGFR3, 90 minutes at RT
T1 construct: purchased Millpore Corp. (Millipore) 14-681
Experimental: (§1) Enzyme activity for VEGFR3, VEGFR2 and Flt3 were measured on the Caliper Life Sciences LC3000 (Hopkinton, Mass.). The system utilizes the principle of electroosmotic flow to separate and quantify the amount of phosphorylated-Fluorescein-labelled-peptide (product) from unphosphorylated-Fluorescein-labelled peptide (substrate). The amount of product and substrate are determined by measuring the peak heights from the electropherogram. The enzyme activity is then quantified by dividing the amount of product by the sum of the product and substrate. The inhibitory activity of a sample is measured by comparing the enzyme activity in the presence of sample versus the enzyme activity in the presence of dimethylsufoxide (DMSO). Specific assay conditions for each enzyme are listed below:
(§2) VEGFR3 assay: The peptide substrate at 1 uM (FITC-KKKKEEIYFFF-CONH2; synthesized at Tufts University, Boston, Mass.) was incubated with 400 uM of ATP, corresponding to the Michaelis-Menten (Km) constant of the enzyme/substrate reaction, and 0.4 nM of VEGFR3 (Millpore Corp., Cat. No. 14-681) for 90 minutes at RT. After 90 minutes, the reaction was stopped by the addition of 10 mM EDTA. The substrate and product were then separated on the LC3000.

VEGFR2 = biological target: T2, VEGFR2 (Homo sapiens, UniProt P35968); assay: VEGFR2 enzyme activity assay (Caliper LC3000 mobility shift); conditions: 160 uM ATP (Km), 1 nM VEGFR2, 90 minutes at RT
T2 construct: purchased BPS Bioscience; San Diego, Calif; 40301
T2 sequence (P35968 20-1356): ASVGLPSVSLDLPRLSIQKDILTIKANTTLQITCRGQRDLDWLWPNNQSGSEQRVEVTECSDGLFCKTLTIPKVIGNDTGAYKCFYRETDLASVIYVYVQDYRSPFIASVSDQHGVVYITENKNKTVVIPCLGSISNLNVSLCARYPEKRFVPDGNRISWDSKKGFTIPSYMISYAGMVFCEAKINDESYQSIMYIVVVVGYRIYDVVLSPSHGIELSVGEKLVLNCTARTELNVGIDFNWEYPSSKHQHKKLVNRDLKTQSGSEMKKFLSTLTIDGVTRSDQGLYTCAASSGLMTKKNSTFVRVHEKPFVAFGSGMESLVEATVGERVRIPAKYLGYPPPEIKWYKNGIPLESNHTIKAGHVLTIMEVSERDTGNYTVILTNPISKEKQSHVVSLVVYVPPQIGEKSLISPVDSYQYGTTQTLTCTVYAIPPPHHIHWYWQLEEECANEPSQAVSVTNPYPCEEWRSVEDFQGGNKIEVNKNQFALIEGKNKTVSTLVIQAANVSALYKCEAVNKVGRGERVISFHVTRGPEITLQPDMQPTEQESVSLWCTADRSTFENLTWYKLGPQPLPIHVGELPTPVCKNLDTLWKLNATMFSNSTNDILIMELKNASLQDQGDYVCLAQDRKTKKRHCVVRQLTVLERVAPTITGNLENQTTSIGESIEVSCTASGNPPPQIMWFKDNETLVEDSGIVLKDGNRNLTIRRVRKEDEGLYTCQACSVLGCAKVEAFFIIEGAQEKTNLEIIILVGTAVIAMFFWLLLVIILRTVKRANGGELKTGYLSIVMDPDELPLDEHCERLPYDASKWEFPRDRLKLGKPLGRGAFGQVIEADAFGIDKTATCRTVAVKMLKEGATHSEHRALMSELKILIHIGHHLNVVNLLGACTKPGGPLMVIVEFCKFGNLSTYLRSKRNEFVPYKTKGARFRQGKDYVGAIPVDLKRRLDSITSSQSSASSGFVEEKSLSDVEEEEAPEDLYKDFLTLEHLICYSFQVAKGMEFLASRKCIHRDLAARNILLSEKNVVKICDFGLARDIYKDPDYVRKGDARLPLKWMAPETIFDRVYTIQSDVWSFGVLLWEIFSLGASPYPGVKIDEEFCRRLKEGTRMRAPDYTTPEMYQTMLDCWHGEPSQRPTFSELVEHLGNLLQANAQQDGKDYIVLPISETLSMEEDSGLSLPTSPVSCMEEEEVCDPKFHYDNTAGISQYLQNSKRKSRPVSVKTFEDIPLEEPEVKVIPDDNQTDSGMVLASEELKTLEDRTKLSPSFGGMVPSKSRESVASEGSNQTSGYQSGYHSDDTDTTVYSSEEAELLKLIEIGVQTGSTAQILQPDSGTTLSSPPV
Experimental: as §1
as §2, with “VEGFR2” for “VEGFR3”, “(5-FL-EEPLYWSFPAKKK-CONH2;” for “(FITC-KKKKEEIYFFF-CONH2;”, “160” for “400”, “1” for “0.4”, “VEGFR2 (BPS Bioscience; San Diego, Calif.;” for “VEGFR3 (Millpore Corp.,”, “40301)” for “14-681)”

Flt3 = biological target: T3, Flt3 (Homo sapiens, UniProt P36888); assay: Flt3 enzyme activity assay (Caliper LC3000 mobility shift); conditions: 350 uM ATP (Km), 3 nM Flt3, 90 minutes at RT
T3 construct: purchased BPS Bioscience; San Diego, Calif; 40225
T3 sequence (P36888 27-993): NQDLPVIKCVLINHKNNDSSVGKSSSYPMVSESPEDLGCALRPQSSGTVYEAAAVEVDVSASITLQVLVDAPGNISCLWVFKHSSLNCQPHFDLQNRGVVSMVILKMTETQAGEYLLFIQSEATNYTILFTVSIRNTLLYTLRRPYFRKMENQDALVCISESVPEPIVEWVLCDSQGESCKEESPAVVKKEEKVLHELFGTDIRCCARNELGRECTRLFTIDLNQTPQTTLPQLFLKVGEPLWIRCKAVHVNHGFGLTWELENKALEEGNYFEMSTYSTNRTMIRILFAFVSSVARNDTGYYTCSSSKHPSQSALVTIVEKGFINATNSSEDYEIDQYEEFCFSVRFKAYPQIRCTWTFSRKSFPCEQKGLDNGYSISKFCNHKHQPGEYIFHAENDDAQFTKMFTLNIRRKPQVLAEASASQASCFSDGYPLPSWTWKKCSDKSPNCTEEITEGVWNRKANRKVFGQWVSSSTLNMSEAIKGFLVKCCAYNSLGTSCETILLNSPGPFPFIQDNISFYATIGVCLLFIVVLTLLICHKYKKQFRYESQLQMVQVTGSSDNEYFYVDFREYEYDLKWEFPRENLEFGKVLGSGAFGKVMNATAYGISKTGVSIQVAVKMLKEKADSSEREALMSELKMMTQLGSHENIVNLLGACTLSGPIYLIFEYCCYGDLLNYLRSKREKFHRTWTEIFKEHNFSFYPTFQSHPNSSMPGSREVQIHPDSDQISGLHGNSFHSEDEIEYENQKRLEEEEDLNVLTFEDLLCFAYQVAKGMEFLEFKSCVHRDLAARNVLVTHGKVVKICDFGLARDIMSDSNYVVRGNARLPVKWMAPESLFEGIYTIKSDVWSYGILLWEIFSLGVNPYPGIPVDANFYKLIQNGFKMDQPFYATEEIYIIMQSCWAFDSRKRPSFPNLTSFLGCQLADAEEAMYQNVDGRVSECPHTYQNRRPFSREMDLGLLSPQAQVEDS
Experimental: as §1
as §2, with “Flt3” for “VEGFR3”, “(FITC-AHA-UEAIYAAPFAKKK-CONH2;” for “(FITC-KKKKEEIYFFF-CONH2;”, “350” for “400”, “3” for “0.4”, “Flt3 (BPS Bioscience; San Diego, Calif.;” for “VEGFR3 (Millpore Corp.,”, “40225)” for “14-681)”

Measured: IC50

T1 sequence (P35916 25-1363): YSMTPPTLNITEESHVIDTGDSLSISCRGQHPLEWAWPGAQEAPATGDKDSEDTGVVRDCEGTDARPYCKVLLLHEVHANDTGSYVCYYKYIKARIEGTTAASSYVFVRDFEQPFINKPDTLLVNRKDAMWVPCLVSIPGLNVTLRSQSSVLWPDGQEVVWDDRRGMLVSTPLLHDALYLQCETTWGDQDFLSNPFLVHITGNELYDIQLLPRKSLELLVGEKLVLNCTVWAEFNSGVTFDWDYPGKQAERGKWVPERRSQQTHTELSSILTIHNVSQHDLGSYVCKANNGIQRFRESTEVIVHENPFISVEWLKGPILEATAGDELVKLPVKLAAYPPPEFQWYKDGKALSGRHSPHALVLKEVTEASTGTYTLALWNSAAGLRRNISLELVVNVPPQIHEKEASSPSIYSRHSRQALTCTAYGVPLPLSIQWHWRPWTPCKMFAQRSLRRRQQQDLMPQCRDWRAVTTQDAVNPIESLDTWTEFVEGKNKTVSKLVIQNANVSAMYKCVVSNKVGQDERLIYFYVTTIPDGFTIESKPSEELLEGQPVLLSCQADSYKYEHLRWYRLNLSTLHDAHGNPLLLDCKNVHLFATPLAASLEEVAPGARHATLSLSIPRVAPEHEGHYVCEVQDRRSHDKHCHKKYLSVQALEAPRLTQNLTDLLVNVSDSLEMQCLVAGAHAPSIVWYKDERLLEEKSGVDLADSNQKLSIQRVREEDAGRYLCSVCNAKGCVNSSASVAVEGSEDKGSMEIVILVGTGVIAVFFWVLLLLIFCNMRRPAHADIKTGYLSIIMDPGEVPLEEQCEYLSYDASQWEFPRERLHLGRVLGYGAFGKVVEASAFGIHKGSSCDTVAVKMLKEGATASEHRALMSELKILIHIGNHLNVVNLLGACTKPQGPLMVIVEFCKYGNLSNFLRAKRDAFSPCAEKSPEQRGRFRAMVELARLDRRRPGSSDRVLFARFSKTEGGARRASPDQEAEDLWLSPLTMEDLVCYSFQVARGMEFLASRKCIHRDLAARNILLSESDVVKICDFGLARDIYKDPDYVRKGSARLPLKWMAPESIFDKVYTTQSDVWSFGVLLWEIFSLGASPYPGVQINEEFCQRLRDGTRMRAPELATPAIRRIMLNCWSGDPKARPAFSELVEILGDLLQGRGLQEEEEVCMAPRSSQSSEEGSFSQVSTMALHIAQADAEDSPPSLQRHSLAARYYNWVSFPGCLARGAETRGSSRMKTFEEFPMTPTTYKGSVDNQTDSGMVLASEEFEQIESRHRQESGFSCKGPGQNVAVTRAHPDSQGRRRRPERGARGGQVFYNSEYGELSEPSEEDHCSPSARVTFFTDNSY

C(#Cc1ccnc2[nH]ccc12)c1ccc(-c2csnn2)cc1 [compound 136]
> 1 µM: all assays above

Nc1ccccc1C#Cc1cnc2[nH]ccc2c1 [compound 137]
> 1 µM: all assays above

COc1ccc(C#Cc2cnc3[nH]ccc3c2)cc1 [compound 138]
> 1 µM: all assays above

COc1ccc(NC(=O)Cc2ccccc2C#Cc2ccnc3[nH]ccc23)cc1 [compound 139]
> 1 µM: all assays above
